Data: patent US20100216834A1, “HIV INTEGRASE INHIBITORS” (priority 2006, published 2010)
Where two headings read alike, the source gives them in different places.

Legend:
HIV = assay: Assay for inhibition of HIV replication (spread assay): acute HIV infection of T-lymphoid cells; type: cell-based
Experimental: Assays for the inhibition of acute HIV infection of T-lymphoid cells were conducted in accordance with Vacca, J. P. et al., Proc. Natl. Acad. Sci. USA 1994, 91: 4096. […] For example, the compounds of Examples 1 to 3 were tested in this assay and found to have the following IC95 values: […]

[1] = target: T1, recombinant integrase (HIV integrase) (Human immunodeficiency virus type 1 group M subtype B, UniProt P04585); assay: HIV integrase assay: strand transfer catalyzed by recombinant integrase; type: biochemical
T1 construct: Strand Transfer Catalyzed by Recombinant Integrase
Experimental: Assays for the strand transfer activity of integrase were conducted in accordance with WO 02/30930 for recombinant integrase. […] For example, the compounds prepared in Examples 1 to 3 were tested in the integrase assay and found to have the following IC50 values:
Further description on conducting the assay using preassembled complexes is found in Wolfe, A. L. et al., J. Virol. 1996, 70: 1424-1432, Hazuda et al., J. Virol. 1997, 71: 7005-7011; Hazuda et al., Drug Design and Discovery 1997, 15: 17-24; and Hazuda et al., Science 2000, 287: 646-650.

[2] = IC50 (inhibition of strand transfer activity)

## CN1C[C@H](O)C(C)(C)Cn2c(c3c(c(O)c2=O)C(=O)N(Cc2ccc(F)c(Cl)c2)CC3)C1=O (single isomer, unassigned) [Ex. 1 - Isomer A-1]
HIV
  IC95 in the presence of 10% FBS: 15 nM
[1]; [2]
  IC50: 14 nM

## CN1C[C@H](O)C(C)(C)Cn2c(c3c(c(O)c2=O)C(=O)N(Cc2ccc(F)c(Cl)c2)CC3)C1=O (single isomer, unassigned) [Ex. 1 - Isomer B-1]
HIV
  IC95 in the presence of 10% FBS: 31 nM
[1]; [2]
  IC50: 21 nM

## CN1C[C@@H](O)C(C)(C)Cn2c(c3c(c(O)c2=O)C(=O)N(Cc2ccc(F)c(Cl)c2)CC3)C1=O (single isomer, unassigned) [Ex. 2]
HIV
  IC95 in the presence of 10% FBS: 31 nM
[1]; read-out: IC50 (inhibition of strand transfer activity)
  IC50: 3 nM

## CC1CCCN(C)C(=O)c2c3c(c(O)c(=O)n21)C(=O)N(Cc1ccc(F)c(Cl)c1)CC3 (single isomer, unassigned) [Ex. 3 - Diasteromer A-3, 11-(3-Chloro-4-fluorobenzyl)-9-hydroxy-2,6-dimethyl-3,4,5,6,12,13-hexahydro-2H[1,4]diazocino[2,1-a]-2,6-naphthyridine-1,8,10(11H)-trione]
HIV
  IC95 in the presence of 10% FBS: 125 nM
[1]; [2]
  IC50: 17 nM

## CC1CCCN(C)C(=O)c2c3c(c(O)c(=O)n21)C(=O)N(Cc1ccc(F)c(Cl)c1)CC3 (single isomer, unassigned) [Ex. 3 - Diasteromer B-3, 11-(3-Chloro-4-fluorobenzyl)-9-hydroxy-2,6-dimethyl-3,4,5,6,12,13-hexahydro-2H[1,4]diazocino[2,1-a]-2,6-naphthyridine-1,8,10(11H)-trione]
HIV
  IC95 in the presence of 10% FBS: 11 nM
[1]; [2]
  IC50: 17 nM

## CC1CCCN(C)C(=O)c2c3c(c(O)c(=O)n21)C(=O)N(Cc1ccc(F)c(Cl)c1)CC3 (single isomer, unassigned) [Ex. 3 - Diasteromer C-3, 11-(3-Chloro-4-fluorobenzyl)-9-hydroxy-2,6-dimethyl-3,4,5,6,12,13-hexahydro-2H[1,4]diazocino[2,1-a]-2,6-naphthyridine-1,8,10(11H)-trione]
HIV
  IC95 in the presence of 10% FBS: 250 nM
[1]; [2]
  IC50: 8 nM

## CC1CCCN(C)C(=O)c2c3c(c(O)c(=O)n21)C(=O)N(Cc1ccc(F)c(Cl)c1)CC3 (single isomer, unassigned) [Ex. 3 - Diasteromer D-3, 11-(3-Chloro-4-fluorobenzyl)-9-hydroxy-2,6-dimethyl-3,4,5,6,12,13-hexahydro-2H[1,4]diazocino[2,1-a]-2,6-naphthyridine-1,8,10(11H)-trione]
HIV
  IC95 in the presence of 10% FBS: 8 nM
[1]; [2]
  IC50: 8 nM
